These results are taken from PMC11231610, “Fatty acid binding to the human transport proteins FABP3, FABP4, and FABP5 from a Ligand’s perspective” (The Journal of Biological Chemistry, 2024).

What is called Kd is a measure of binding affinity in units of concentration.

Each structure is given as a SMILES string.

The target in one test is FABPs. Also noted: method as in PMID 11461829. The settings on record: moderate to high binding affinities of FABPs, ref [2]; cited from earlier work.
A further test deals with T1, FABP5 (Homo sapiens, UniProt Q01469).
T1 construct: purchased Sigma Aldrich
The test can be described thus: MST binding of fluorescent fatty acids to FABP5. The protocol: (§1) FABPs are known to bind more hydrophobic ligands with higher affinity ([1]).
(§2) Microscale thermophoresis (MST) experiments were carried out on a Monolith NT.115 MST device (NanoTemper Technologies GmbH). […] […] In order to minimize the effect of protein aggregation, 0.05 Vol-% of Tween 20 (NanoTemper Technologies GmbH) were added to the HEPES/NaCl buffer solution. Samples were prepared in low-binding Eppendorf tubes. The influence of photobleaching on the quantum yield was reduced by using freshly diluted fluorophore solutions and storing the samples under the exclusion of light during the incubation time of 10 min. The samples were loaded into premium capillaries (NanoTemper Technologies GmbH). The coated capillary surface is designed to avoid the adhesion of molecules. Initially, repeated pre-tests without protein but with different fluorophore concentrations were carried out. This was done to find the optimum concentration and excitation power and to check the fluorescence activity of the fluorophores. The fluorescence intensity had to be in the range of 300 to 600 counts, with preferably smooth MST traces. For binding affinity measurements, the concentration of the fluorescent fatty acid was held constant at 80 nM, while the non-labeled FABPs were used at variable concentrations in a dilution series. The power of the IR laser was held constant at a medium set for all measurements, generating a constant temperature gradient. The measurements were performed as duplicates, using the software MO. Control (version 1.6) and afterward analyzed with the software MO. Affinity Analysis (version 2.3) (NanoTemper Technologies GmbH). The mean fluorescence intensities at the start time were divided by the values at the end time of the MST traces and normalized, obtaining the MST signal Fnorm. For all analyses, the end time was manually set to 1.5 s after the start of the heating process. Fnorm was normalized for the amplitude and baseline corrected to obtain the bound fraction.

Another test deals with T2, FABP3 (Homo sapiens, UniProt P05413).
T2 construct: purchased Sigma Aldrich
The test can be described thus: MST binding of fluorescent fatty acids to FABP3. The protocol: as §1, §2

The target of another test is T3, FABP4 (Homo sapiens, UniProt P15090).
T3 construct: purchased Sigma Aldrich
The test can be described thus: MST binding of fluorescent fatty acids to FABP4. The method, then:
as §1, §2

Where [1] appears, read: 80 nM rhodamine-PA, HEPES/NaCl pH 7.5 with 0.05 Vol-% Tween 20.

T2 sequence (P05413 whole entry): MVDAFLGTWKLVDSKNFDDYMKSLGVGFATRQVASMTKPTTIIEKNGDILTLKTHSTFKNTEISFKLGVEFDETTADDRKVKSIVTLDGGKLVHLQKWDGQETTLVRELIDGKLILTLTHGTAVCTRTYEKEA
T3 sequence (P15090 whole entry): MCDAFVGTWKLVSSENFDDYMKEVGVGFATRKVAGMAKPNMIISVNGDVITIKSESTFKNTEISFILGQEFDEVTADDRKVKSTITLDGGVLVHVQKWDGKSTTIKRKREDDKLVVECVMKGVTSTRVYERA
T1 sequence (Q01469 whole entry): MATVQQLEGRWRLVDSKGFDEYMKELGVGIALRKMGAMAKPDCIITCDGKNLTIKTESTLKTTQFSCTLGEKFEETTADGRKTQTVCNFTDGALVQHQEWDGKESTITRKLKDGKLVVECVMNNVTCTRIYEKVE

For the molecule `CCCCCCCC/C=C\CCCCCCCC(=O)O` [oleic acid], the Kd on FABPs is 0.44 to 1.56 µM.

Regarding `CCN(CC)c1ccc2c(-c3ccc(S(=O)(=O)NCCCCCCCCCCCCCCCC(=O)O)cc3S(=O)(=O)[O-])c3ccc(=[N+](CC)CC)cc-3oc2c1` [rhodamine-PA, [16-N-(lissamine rhodamine ß sulfonyl)amino] palmitic acid], the figures for the lnKA on FABP5, on FABP3 and at FABP4 were 11.7 ± 0.08, 12.56 ± 0.11 and 11.46 ± 0.18, respectively. Moreover, the Kd on FABP5 (setting [1]) was found to be 8.3 ± 0.7 µM; on FABP3 (setting [1]) it was 3.5 ± 0.4 µM; on FABP4 (80 nM rhodamine-PA, FABP4 handled in water) it was 10.5 ± 2.1 µM. Moreover, the “ΔGm,A (molar Gibbs energy of association)” value on FABP5 (at 22 °C, van't Hoff equation) was -6.86 ± 0.048 kcal/mol; on FABP3 (at 22 °C, van't Hoff equation), -7.36 ± 0.0645 kcal/mol; at FABP4 (at 22 °C, van't Hoff equation), -6.72 ± 0.105 kcal/mol.
